Experimental data from ChEMBL document CHEMBL6074663, “Design, synthesis and evaluation of 3-(2-(substituted benzyloxy)benzylidene) pyrrolidine-2,5-dione derivatives for novel ATX inhibitor” (Bioorg Med Chem Lett, 2024).

Legend:
[1] = target: T1, Autotaxin (Homo sapiens, UniProt Q13822); assay: Inhibition of ATX (unknown origin) using FS-3 as substrate preincubated with compound for 10 mins followed by substrate addition measured for 30 mins by fluorometric kinetic assay
[2] = Inhibition of collagen formation in oleic and palmitic acid induced human Huh-7 cells cocultured with human LX2 cells at 1 to 10 uM incubated for […] by Sirius Red staining based analysis; assay type: functional; conditions: dose 1-10 µM
[3] = system: Huh-7; assay: Anti-steatosis activity against oleic acid induced human Huh-7 cells assessed as reduction of lipid accumulation at 1 to 10 uM incubated for 24 hrs by […] based fluorescence microscopic analysis; assay type: functional; design: scale not given: the % may be the effect or the level left; conditions: dose 1-10 µM
[4] = system: LX-2; assay: Inhibition of cell migration in TGF-beta induced human LX2 cells by measuring cell uncovered area at 0.3 to 3 uM incubated for 24 hrs by wound healing assay; assay type: functional; conditions: dose 0.3-3 µM
[5] = target: T1, Autotaxin; assay: Inhibition of ATX (unknown origin) using FS-3 as substrate by measuring fold change preincubated with compound for 10 mins followed by substrate addition measured for 30 mins by fluorometric kinetic assay compared to 3-(2-(benzyloxy)benzylidene)-1-(3-chlorophenyl)pyrrolidine-2,5-dione; conditions: time 40.0 min

IC50 [1] [nM] | Structure (SMILES) | also measured
270 | CC(C)OC(=O)c1ccc(COc2ccccc2/C=C2/CC(=O)N(c3cccc(Cl)c3)C2=O)cc1 | –
240 | NC(=O)c1ccc(COc2ccccc2/C=C2/CC(=O)N(c3cccc(Cl)c3)C2=O)cc1 | –
130 | COC(=O)c1ccc(COc2ccccc2/C=C2\CC(=O)N(c3cccc(Cl)c3)C2=O)cc1 | inhibition (INH) [2]: 35%; Activity [3]: 42%; inhibition (INH) [4]: 23%
9390 | O=C(O)c1ccc(COc2ccccc2/C=C2/CC(=O)N(c3cccc(Cl)c3)C2=O)cc1 | –

Second part, the molecule before the results:

Structure (SMILES) | IC50 [1] [nM] | also measured
O=C(Oc1ccccc1)c1ccc(COc2ccccc2/C=C2/CC(=O)N(c3cccc(Cl)c3)C2=O)cc1 | 2040 | –
O=C1C/C(=C/c2ccccc2OCc2ccccc2)C(=O)N1c1cccc(Cl)c1 | 980 | –
O=C(Oc1cccc2ccccc12)c1ccc(COc2ccccc2/C=C2/CC(=O)N(c3cccc(Cl)c3)C2=O)cc1 | > 10000 | –
CN(C)C(=O)c1ccc(COc2ccccc2/C=C2/CC(=O)N(c3cccc(Cl)c3)C2=O)cc1 | > 10000 | –
CCCOC(=O)c1ccc(COc2ccccc2/C=C2/CC(=O)N(c3cccc(Cl)c3)C2=O)cc1 | 320 | –
N#Cc1ccc(COc2ccccc2/C=C2/CC(=O)N(c3cccc(Cl)c3)C2=O)cc1 | 280 | fold change (FC) [5]: 3.5
